Assay results from patent US20190070081A1, “DEODORIZING COSMETIC COMPOSITION AND METHOD FOR PREPARING SAME” (EINS CO., LTD., priority 2015, published 2019).

Test system: skin tissue model
Experiment: Skin irritation test: MTT effective time (ET-50) viable cell assay on skin tissue model
Assay type: cell-based
Conditions: for % Viability: skin tissue
Method: The skin inflammation potential of a cleaning gel of product No. 1 (also known as Double. S Gel (Lot No. 15730A2); hereinafter, referred to as experimental product)) was evaluated using commercially available MTT effective time (ET-50) live cell experiment test and a skin tissue model.
The experiments performed at the Life Science Institute (BioScience Laboratories, Inc.) began on Sep. 2, 2015 and were completed on Sep. 4, 2015. One deviation in SOP generated during the experiments is shown in Tables 1 to 7 below, the protocols and/or SOP deviation recording formats (form number: 99-QA-004) of FIGS. 1 and 2. […] The skin tissue samples were exposed to the experimental product for 1 hour, 4 hours, or 24 hours.
The experimental product was tested undiluted, as provided by the sponsor. Three untreated negative control dermal tissue specimens were exposed for 24 hours.
The first tissue specimen, the second tissue specimen, and the third tissue specimen were exposed to 1.0% Triton X-100 (Lot No. 082615BBA) as a positive control for 1, 4, and 24 hours, respectively.
At the same time as the experimental procedure, MTT control was evaluated, and the evaluation was regarded as a result of direct reduction of the MTT product. […] During the experimental procedure, the frozen tissue was exposed to the experimental product to determine whether the experimental product was effectively washed from tissue.
The absorbance of the specimens was determined using a VERSA Max™ Tunable Microplate Reader (with SOFTmax® PRO Software) set to 570 nm with several […] aliquots of isopropyl alcohol.
Absorbance values were converted into the probabilistic feasibility of tissue culture by SOFTmax® PRO Software. These values were expressed as time-dependent by SOFTmax® PRO Software, and then ET-50 was determined by interpolation. ET-50 is an estimated time when the probabilistic feasibility of tissues falls to 50%.

For Triton X-100 [Positive Control], the “Irritancy Classification (Expected In-Vivo Irritancy)” value (from MTT ET-50) was “Moderate to Mild Irritation”, the “% Viability” value (1 hour exposure) was 66.51% and the “% Viability” value (4 hours exposure) was 78.40%. The “% Viability” value (24 hours exposure) was 6.06% and the “MTT ET-50” value (tested undiluted, skin tissue exposed 1, 4, 24 hours, time at which viability falls to 50%, by interpolation) was 4.65 h.
